Data taken from publication PMC9953885 (Biosensors, 2023).
Structures can show the parent of a compound that is named as a salt.

Tests used:
[1] = target: T1, human pancreatic lipase (hPL) (Homo sapiens, UniProt P16233); assay: Michaelis-Menten kinetics of fluorogenic substrate hydrolysis (Km); format: biochemical
T1 construct: gene PNLIP
T1 sequence (P16233 17-465): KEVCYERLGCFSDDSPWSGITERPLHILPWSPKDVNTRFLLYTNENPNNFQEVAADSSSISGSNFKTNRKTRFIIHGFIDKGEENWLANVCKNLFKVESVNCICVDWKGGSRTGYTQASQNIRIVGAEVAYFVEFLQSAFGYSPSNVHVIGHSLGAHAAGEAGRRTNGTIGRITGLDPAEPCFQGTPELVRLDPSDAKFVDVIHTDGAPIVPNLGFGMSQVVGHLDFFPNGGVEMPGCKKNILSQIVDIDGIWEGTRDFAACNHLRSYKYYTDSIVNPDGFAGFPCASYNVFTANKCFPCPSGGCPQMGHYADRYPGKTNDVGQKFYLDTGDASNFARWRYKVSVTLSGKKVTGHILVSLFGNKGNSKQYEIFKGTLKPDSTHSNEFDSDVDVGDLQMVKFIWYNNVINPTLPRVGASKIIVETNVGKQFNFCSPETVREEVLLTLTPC

[2] = target: T1, human pancreatic lipase (hPL); assay: RLE-based fluorescence hydrolysis assay, dose-inhibition; format: biochemical
[3] = target: T1, human pancreatic lipase (hPL); settings: 10 µM; inhibitor

| Km [1] [µM] | IC50 [2] [µM] | % of control remaining [3] [%] | SMILES |
| --- | --- | --- | --- |
|  | 5.63 | 4.05 | O=C(c1ccc(OCCN2CCCCC2)cc1)c1c(-c2ccc(O)cc2)sc2cc(O)ccc12 [d1, raloxifene] |
|  | 15.6 | 44.04 | CNC(=O)c1cc(Oc2ccc(NC(=O)Nc3ccc(Cl)c(C(F)(F)F)c3)cc2)ccn1 [f1, sorafenib tosylate] |
|  | 1.36 | 5.25 | COc1ccc(-c2cc(=O)c3c(O)cc(O)c(-c4cc(-c5cc(=O)c6c(O)cc(OC)cc6o5)ccc4OC)c3o2)cc1 [h10, sciadopitysin] |
|  |  | 102.02 | Nc1ccccc1NC(=O)c1ccc(CNC(=O)OCc2cccnc2)cc1 [Entinostat] |

The next lines start with the compound.

| SMILES | Km [1] [µM] | IC50 [2] [µM] | % of control remaining [3] [%] |
| --- | --- | --- | --- |
| CCCCCCCCCCCC(=O)Oc1ccc2nc3ccc(=O)cc-3oc2c1 [RLE, 3-oxo-3H-phenoxazin-7-yl dodecanoate] | 10.4 |  |  |
| CC(C)c1cc2c(c(O)c1O)[C@@]13CCCC(C)(C)[C@@H]1C[C@@H]2OC3=O [h9, carnosol] |  | 0.58 | 4.20 |
| O=c1c(O)c(-c2ccc(O)c(O)c2)oc2cc(O)cc(O)c12 [Quercetin] |  |  | 47.29 |
